Results reported in patent US20060083680A1, “Diphenyl ether derivatives and their use for imaging serotonin transporters” (The Trustees of the University of Pennsylvania, priority 2004, published 2006).
Where “and” joins values, the source holds several entries; their conditions need not be identical. Identical values can stand only once. Entries after “also recorded” stand apart in the source; their conditions may differ.

Key:
[1] = Biodistribution in rats after iv injection (organs); assay type: in vivo; settings: iv, 24 hrs
Protocol: Biodistribution in rats: Three rats per group were used for each biodistribution study. While under ether anesthesia, 0.2 mL of a saline solution containing 10 μCi of radioactive tracer was injected into the femoral vein. The rats were sacrificed at the time indicated by cardiac excision while under ether anesthesia. Organs of interest were removed and weighed, and the radioactivity was counted. The percent dose per organ was calculated by a comparison of the tissue counts to counts of 1% of the initial dose (100 times diluted aliquots of the injected material) measured at the same time.

[2] = target: T1, SERT binding sites (Rattus norvegicus, UniProt P31652); assay: Ex vivo autoradiography of rat brain sections; assay type: in vivo, rats; settings: rats, ex vivo after i.v. injection
T1 construct: from tissue; host or cells: rat brain in vivo (hypothalamus, cortex, striatum, hippocampus, cerebellum); ex vivo brain sections
T1 sequence (P31652 whole entry): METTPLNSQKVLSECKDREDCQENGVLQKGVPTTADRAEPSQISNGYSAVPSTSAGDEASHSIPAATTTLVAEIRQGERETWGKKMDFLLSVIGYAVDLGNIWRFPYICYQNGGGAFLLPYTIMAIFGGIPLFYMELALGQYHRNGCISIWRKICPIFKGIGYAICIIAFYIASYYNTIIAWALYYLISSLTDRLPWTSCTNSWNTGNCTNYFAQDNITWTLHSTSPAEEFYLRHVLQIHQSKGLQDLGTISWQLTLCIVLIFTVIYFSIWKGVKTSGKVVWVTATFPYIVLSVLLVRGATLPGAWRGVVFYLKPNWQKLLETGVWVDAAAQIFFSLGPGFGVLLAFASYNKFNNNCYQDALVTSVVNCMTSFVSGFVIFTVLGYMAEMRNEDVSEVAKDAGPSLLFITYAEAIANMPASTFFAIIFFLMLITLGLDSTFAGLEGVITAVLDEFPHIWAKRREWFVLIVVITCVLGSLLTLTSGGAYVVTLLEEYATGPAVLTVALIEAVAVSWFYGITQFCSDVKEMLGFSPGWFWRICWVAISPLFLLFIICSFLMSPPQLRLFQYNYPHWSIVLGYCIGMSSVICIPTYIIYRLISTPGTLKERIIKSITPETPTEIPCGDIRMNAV

[3] = target: T2, serotonin transporters (Rattus norvegicus, UniProt P31652); assay: Regional brain distribution and specific binding ratio in rats; assay type: in vivo; settings: for Ratio of (Region-Cerebellum)/Cerebellum, CX / Ratio of (Region-Cerebellum)/Cerebellum, HP / Ratio of (Region-Cerebellum)/Cerebellum, HY / Ratio of (Region-Cerebellum)/Cerebellum, ST / Regional brain distribution CB (cerebellum) / Regional brain distribution CX (cortex) / Regional brain distribution HP (hippocampus) / Regional brain distribution HY (hypothalamus) / Regional brain distribution ST (striatum): iv
T2 construct: from tissue; host or cells: rat brain in vivo (hypothalamus, cortex, striatum, hippocampus, cerebellum); ex vivo brain sections
T2 sequence (P31652 whole entry): as above
Protocol: Regional brain distribution in rats was measured after an i.v. injection of the radioactive tracer. Samples from different brain regions: cortex (frontal plus occipital), striatum, hippocampus, cerebellum and hypothalamus were dissected, weighed and counted. The percentage dose/g of each sample was calculated by comparing sample counts with the counts of the diluted initial dose described above. The specific binding ratio in each region was obtained by dividing the % dose/gram values between region by that in the cerebellum ([region-cerebellum/cerebellum]). The cerebellum region containing little or no serotonin transporters was used as the background region.

[4] = Stability of the radioactive material; settings: refrigerator

Question: What does the source list for CN(C)Cc1ccccc1Oc1ccc([125I])cc1N [[^125I]4, [^125I][^123I]2-(2-(Dimethylaminomethyl)phenoxy)-5-iodophenylamine]?
Answer: Biodistribution Lung [1]: 0.04 ± 0.00 % dose/organ; Biodistribution Muscle [1]: 1.13 ± 0.13 % dose/organ; Biodistribution Skin [1]: 4.02 ± 0.26 % dose/organ; Biodistribution Spleen [1]: 0.05 ± 0.01 % dose/organ; Biodistribution Thyroid [1]: 4.61 ± 1.21 % dose/organ; regional distribution pattern in brain [2]: distinctive distribution pattern in the brain, which reflected regional distribution of SERT binding sites; also recorded: excellent regional distribution pattern consistent with known SERT localization; hypothalamus uptake compared to other radioiodinated compounds ([3]; 60-240 min post i.v. injection): highest uptake in hypothalamus; Ratio of (Region-Cerebellum)/Cerebellum, CX ([3]; 2 min): 0.56 ± 0.55; Ratio of (Region-Cerebellum)/Cerebellum, HP ([3]; 2 min): 0.13 ± 0.22; Ratio of (Region-Cerebellum)/Cerebellum, HY ([3]; 2 min): 0.24 ± 0.17; Ratio of (Region-Cerebellum)/Cerebellum, ST ([3]; 2 min): 0.01 ± 0.27; Regional brain distribution CB (cerebellum) ([3]; 2 min): 0.79 ± 0.21 % dose/g; Regional brain distribution CX (cortex) ([3]; 2 min): 1.16 ± 0.14 % dose/g; Regional brain distribution HP (hippocampus) ([3]; 2 min): 0.86 ± 0.07 % dose/g; Regional brain distribution HY (hypothalamus) ([3]; 2 min): 0.96 ± 0.15 % dose/g; Regional brain distribution ST (striatum) ([3]; 2 min): 0.77 ± 0.04 % dose/g; Ratio of (Region-Cerebellum)/Cerebellum, CX ([3]; 30 min): 0.96 ± 0.14; Ratio of (Region-Cerebellum)/Cerebellum, HP ([3]; 30 min): 0.68 ± 0.22; Ratio of (Region-Cerebellum)/Cerebellum, HY ([3]; 30 min): 1.06 ± 0.22; Ratio of (Region-Cerebellum)/Cerebellum, ST ([3]; 30 min): 0.83 ± 0.23; Regional brain distribution CB (cerebellum) ([3]; 30 min): 0.64 ± 0.09 % dose/g; Regional brain distribution CX (cortex) ([3]; 30 min): 1.25 ± 0.13 % dose/g; Regional brain distribution HP (hippocampus) ([3]; 30 min): 1.06 ± 0.12 % dose/g; Regional brain distribution HY (hypothalamus) ([3]; 30 min): 1.30 ± 0.06 % dose/g; Regional brain distribution ST (striatum) ([3]; 30 min): 1.16 ± 0.10 % dose/g; Ratio of (Region-Cerebellum)/Cerebellum, CX ([3]; 60 min): 1.35 ± 0.07; Ratio of (Region-Cerebellum)/Cerebellum, HP ([3]; 60 min): 1.30 ± 0.05; Ratio of (Region-Cerebellum)/Cerebellum, HY ([3]; 60 min): 1.92 and 1.92 ± 0.20; Ratio of (Region-Cerebellum)/Cerebellum, ST ([3]; 60 min): 1.51 ± 0.12; Regional brain distribution CB (cerebellum) ([3]; 60 min): 0.41 ± 0.03 % dose/g; Regional brain distribution CX (cortex) ([3]; 60 min): 0.95 ± 0.07 % dose/g; Regional brain distribution HP (hippocampus) ([3]; 60 min): 0.94 ± 0.08 % dose/g; Regional brain distribution HY (hypothalamus) ([3]; 60 min): 1.18 ± 0.08 % dose/g; Regional brain distribution ST (striatum) ([3]; 60 min): 1.02 ± 0.11 % dose/g; Ratio of (Region-Cerebellum)/Cerebellum, CX ([3]; 120 min): 1.48 ± 0.13; Ratio of (Region-Cerebellum)/Cerebellum, HP ([3]; 120 min): 2.19 ± 0.07; Ratio of (Region-Cerebellum)/Cerebellum, HY ([3]; 120 min): 3.49 and 3.49 ± 0.09; Ratio of (Region-Cerebellum)/Cerebellum, ST ([3]; 120 min): 2.53 ± 0.17; Regional brain distribution CB (cerebellum) ([3]; 120 min): 0.21 ± 0.01 % dose/g; Regional brain distribution CX (cortex) ([3]; 120 min): 0.51 ± 0.04 % dose/g; Regional brain distribution HP (hippocampus) ([3]; 120 min): 0.65 ± 0.04 % dose/g; Regional brain distribution HY (hypothalamus) ([3]; 120 min): 0.92 ± 0.06 % dose/g; Regional brain distribution ST (striatum) ([3]; 120 min): 0.72 ± 0.01 % dose/g; Ratio of (Region-Cerebellum)/Cerebellum, CX ([3]; 240 min): 1.12 ± 0.17; Ratio of (Region-Cerebellum)/Cerebellum, HP ([3]; 240 min): 2.47 ± 0.28; Ratio of (Region-Cerebellum)/Cerebellum, HY ([3]; 240 min): 4.49 and 4.3 and 4.49 ± 0.12; Ratio of (Region-Cerebellum)/Cerebellum, ST ([3]; 240 min): 3.11 ± 0.35; Regional brain distribution CB (cerebellum) ([3]; 240 min): 0.06 ± 0.00 % dose/g; Regional brain distribution CX (cortex) ([3]; 240 min): 0.12 ± 0.01 % dose/g; Regional brain distribution HP (hippocampus) ([3]; 240 min): 0.20 ± 0.02 % dose/g; Regional brain distribution HY (hypothalamus) ([3]; 240 min): 0.32 ± 0.03 % dose/g; Regional brain distribution ST (striatum) ([3]; 240 min): 0.24 ± 0.02 % dose/g; Ratio of (Region-Cerebellum)/Cerebellum, CX ([3]; 6 hrs): 0.58 ± 0.09; Ratio of (Region-Cerebellum)/Cerebellum, HP ([3]; 6 hrs): 1.21 ± 0.11; Ratio of (Region-Cerebellum)/Cerebellum, HY ([3]; 6 hrs): 2.64 and 2.64 ± 0.54; Ratio of (Region-Cerebellum)/Cerebellum, ST ([3]; 6 hrs): 1.56 ± 0.41; Regional brain distribution CB (cerebellum) ([3]; 6 hrs): 0.027 ± 0.002 % dose/g; Regional brain distribution CX (cortex) ([3]; 6 hrs): 0.042 ± 0.002 % dose/g; Regional brain distribution HP (hippocampus) ([3]; 6 hrs): 0.059 ± 0.005 % dose/g; Regional brain distribution HY (hypothalamus) ([3]; 6 hrs): 0.097 ± 0.015 % dose/g; Regional brain distribution ST (striatum) ([3]; 6 hrs): 0.068 ± 0.005 % dose/g; Ratio of (Region-Cerebellum)/Cerebellum, CX ([3]; 11 hrs): 0.00 ± 0.16; Ratio of (Region-Cerebellum)/Cerebellum, HP ([3]; 11 hrs): 0.09 ± 0.08; Ratio of (Region-Cerebellum)/Cerebellum, HY ([3]; 11 hrs): 0.44 ± 0.19; Ratio of (Region-Cerebellum)/Cerebellum, ST ([3]; 11 hrs): 0.14 ± 0.13; Regional brain distribution CB (cerebellum) ([3]; 11 hrs): 0.011 ± 0.0013 % dose/g; Regional brain distribution CX (cortex) ([3]; 11 hrs): 0.010 ± 0.0010 % dose/g; Regional brain distribution HP (hippocampus) ([3]; 11 hrs): 0.012 ± 0.0021 % dose/g; Regional brain distribution HY (hypothalamus) ([3]; 11 hrs): 0.016 ± 0.0025 % dose/g; Regional brain distribution ST (striatum) ([3]; 11 hrs): 0.012 ± 0.0000 % dose/g; Ratio of (Region-Cerebellum)/Cerebellum, HY ([3]; 24 hrs): 0.23 ± 0.15; Regional brain distribution CB (cerebellum) ([3]; 24 hrs): 0.0049 ± 0.0009 % dose/g; Regional brain distribution CX (cortex) ([3]; 24 hrs): 0.0040 ± 0.0007 % dose/g; Regional brain distribution HP (hippocampus) ([3]; 24 hrs): 0.0040 ± 0.0005 % dose/g; Regional brain distribution HY (hypothalamus) ([3]; 24 hrs): 0.0060 ± 0.0010 % dose/g; Regional brain distribution ST (striatum) ([3]; 24 hrs): 0.0039 ± 0.0004 % dose/g; stability in a refrigerator [4]: stable in a refrigerator for at least three weeks
